From the supplement of paper PMC10307832

Experiments:
Test in all cases: relative viability (nuclei count vs DMSO), 5 days (fraction); higher = more cells survive
[1] = compound: CC[C@H](C)N1C=C(C2=C(C=C(C=C21)C3=CN=C(C=C3)N4CCNCC4)C(=O)NCC5=C(C=C(NC5=O)C)C)C [GSK126] + C[C@@H](Oc1cc(-c2cnn(C3CCNCC3)c2)cnc1N)c1c(Cl)ccc(F)c1Cl [Crizotinib] (partner 1 µM)
Outline: (§1)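 Relative viability divides the nuclei count in treated wells by that in vehicle wells. Lung cancer cell lines were seeded in 1536-well plates, dosed by pin tool the next day, and fixed and stained after 5 days in one step with final 0.05% Triton X-100, 1% formaldehyde and 1 ug/ml Hoechst. Dosing was a single drug or a fixed anchor-drug dose plus five library-drug doses (not always all listed) in √10 steps, and values are medians of duplicate plates imaged at 4×.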

[2] = compound: C1CC(C1)(C(=O)O)C(=O)O.[NH2-].[NH2-].[Pt+2] [Carboplatin] + N=C(N)NC(=N)NCCc1ccccc1 [Phenformin] (partner 250 µM)
Outline: as §1

[3] = compound: NS(=O)(=O)OC[C@@H]1C[C@@H](n2ccc3c(N[C@H]4CCc5ccccc54)ncnc32)C[C@@H]1O [MLN4924] + CC(C)C[C@H](NC(=O)[C@H](Cc1ccccc1)NC(=O)c1cnccn1)B(O)O [Bortezomib] (partner 0.002 µM)
Outline: as §1

[4] = compound: C1CC(C1)(C(=O)O)C(=O)O.[NH2-].[NH2-].[Pt+2] [Carboplatin] + CC(=O)c1c(C)c2cnc(Nc3ccc(N4CCNCC4)cn3)nc2n(C2CCCC2)c1=O [Palbociclib] (partner 0.5 µM)
Outline: as §1

| Cell Line | relative viability ([1]; first compound 0.08 µM) | relative viability ([1]; first compound 0.253 µM) | relative viability ([1]; first compound 0.8 µM) | relative viability ([1]; first compound 2.53 µM) | relative viability ([1]; first compound 8 µM) | relative viability ([2]; first compound 0.08 µM) | relative viability ([2]; first compound 0.253 µM) | relative viability ([2]; first compound 0.8 µM) | relative viability ([2]; first compound 2.53 µM) | relative viability ([2]; first compound 8 µM) | relative viability ([3]; first compound 0.04 µM) | relative viability ([3]; first compound 0.1265 µM) | relative viability ([3]; first compound 0.4 µM) | relative viability ([3]; first compound 1.265 µM) | relative viability ([3]; first compound 4 µM) | relative viability ([4]; first compound 0.08 µM) | relative viability ([4]; first compound 0.253 µM) | relative viability ([4]; first compound 0.8 µM) | relative viability ([4]; first compound 2.53 µM) | relative viability ([4]; first compound 8 µM) |
| --- | --- | --- | --- | --- | --- | --- | --- | --- | --- | --- | --- | --- | --- | --- | --- | --- | --- | --- | --- | --- |
| NCI-H1650 | 0.886 | 1.03 | 0.917 | 0.826 | 0.888 | 0.457 | 0.5 | 0.359 | 0.406 | 0.349 | 0.226 | 0.194 | 0.172 | 0.182 | 0.177 | 0.321 | 0.341 | 0.359 | 0.349 | 0.251 |
| NCI-H650 | 0.912 | 0.741 | 0.658 | 0.755 | 0.594 | 0.495 | 0.451 | 0.398 | 0.428 | 0.398 | 0.439 | 0.456 | 0.233 | 0.179 | 0.202 | 0.318 | 0.337 | 0.332 | 0.276 | 0.232 |
| NCI-H2126 | 1.07 | 1.04 | 1.05 | 0.992 | 0.987 | 0.591 | 0.525 | 0.537 | 0.503 | 0.492 | 1.17 | 1.16 | 0.907 | 0.392 | 0.348 | 0.333 | 0.354 | 0.336 | 0.363 | 0.353 |
| NCI-H838 | 0.798 | 0.856 | 0.834 | 0.772 | 0.752 | 0.707 | 0.587 | 0.603 | 0.601 | 0.603 | 0.807 | 0.456 | 0.315 | 0.0967 | 0.122 | 0.213 | 0.238 | 0.212 | 0.224 | 0.261 |
| EPLC-272H | 1.07 | 0.843 | 0.909 | 0.719 | 0.789 | 0.345 | 0.347 | 0.309 | 0.298 | 0.313 | 0.808 | 0.927 | 0.131 | 0.163 | 0.177 | 0.352 | 0.325 | 0.32 | 0.327 | 0.359 |
| NCI-H1437 | 0.99 | 0.914 | 0.879 | 0.797 | 0.794 | 0.29 | 0.303 | 0.294 | 0.301 | 0.299 | 0.437 | 0.448 | 0.443 | 0.148 | 0.115 | 0.302 | 0.316 | 0.273 | 0.272 | 0.31 |
| NCI-H2405 | 0.947 | 0.753 | 0.816 | 0.817 | 0.814 | 0.455 | 0.379 | 0.369 | 0.38 | 0.383 | 0.935 | 0.957 | 0.639 | 0.266 | 0.283 | 0.552 | 0.542 | 0.542 | 0.543 | 0.449 |
| NCI-H1666 | 1.33 | 0.838 | 0.938 | 1.04 | 1.23 | 0.612 | 0.6 | 0.531 | 0.565 | 0.49 | 0.542 | 0.491 | 0.348 | 0.183 | 0.27 | 0.687 | 0.685 | 0.549 | 0.602 | 0.6 |
| NCI-H1993 | 0.912 | 0.768 | 0.924 | 0.865 | 0.941 | 0.542 | 0.498 | 0.467 | 0.477 | 0.499 | 0.856 | 0.72 | 0.664 | 0.383 | 0.474 | 0.596 | 0.781 | 0.634 | 0.627 | 0.534 |
| HCC-78 | 0.306 | 0.326 | 0.318 | 0.328 | 0.374 | 0.829 | 0.685 | 0.641 | 0.726 | 0.744 | 0.568 | 0.397 | 0.51 | 0.241 | 0.229 | 0.446 | 0.495 | 0.491 | 0.464 | 0.433 |
| LU99A | 0.649 | 0.545 | 0.537 | 0.543 | 0.525 | 0.958 | 0.854 | 0.738 | 0.809 | 0.647 | 0.873 | 0.316 | 0.407 | 0.159 | 0.138 | 0.468 | 0.392 | 0.39 | 0.424 | 0.314 |
| NCI-H520 | 0.885 | 0.62 | 0.644 | 0.747 | 0.642 | 0.677 | 0.595 | 0.725 | 0.585 | 0.54 | 0.424 | 0.272 | 0.341 | 0.131 | 0.141 | 0.26 | 0.2 | 0.201 | 0.223 | 0.228 |
| NCI-H661 | 0.924 | 1.04 | 0.967 | 0.787 | 0.787 | 0.249 | 0.286 | 0.259 | 0.276 | 0.301 | 0.872 | 0.904 | 0.637 | 0.29 | 0.254 | 0.385 | 0.428 | 0.399 | 0.416 | 0.374 |
| NCI-H1975 | 0.919 | 0.91 | 0.886 | 0.96 | 0.949 | 0.437 | 0.43 | 0.437 | 0.413 | 0.394 | 0.526 | 0.452 | 0.26 | 0.169 | 0.149 | 0.572 | 0.625 | 0.56 | 0.601 | 0.518 |
| NCI-H1355 | 1.16 | 1.14 | 0.981 | 1.06 | 1.02 | 0.524 | 0.478 | 0.465 | 0.405 | 0.451 | 1.1 | 1.23 | 1.12 | 0.54 | 0.178 | 0.442 | 0.446 | 0.415 | 0.402 | 0.395 |
| NCI-H1755 | 0.842 | 0.915 | 0.898 | 0.86 | 0.765 | 0.65 | 0.618 | 0.623 | 0.604 | 0.576 | 0.898 | 0.743 | 0.443 | 0.21 | 0.166 | 0.477 | 0.501 | 0.515 | 0.441 | 0.461 |
